In US10334851B2, “Herbicidal isoxazolo[5,4-B]pyridines” (BASF SE, priority 2010, dated 2019):

Columns and labels:
Type in all cases: in vivo
[1] = tested on: Amaranthus retroflexus L.; experiment: Greenhouse post-emergence treatment of Amaranthus retroflexus L. (pigweed); details: for damage / pest or weed control at 1000 g/ha: application rate 1.0 kg/ha; for damage: scale 0 to 100
Text: (§1) The seeds of the test plants were sown separately for each species. For the post-emergence treatment, the test plants were first grown to a height of 3 to 15 cm, depending on the plant habit, and only then treated with the active ingredients which had been suspended or emulsified in water. For this purpose, the test plants were either sown directly and grown in the same containers, or they were first grown separately as seedlings and transplanted into the test containers a few days prior to treatment. Depending on the species, the plants were kept at 10-25° C. or 20-35° C. The test period extended over 2 to 4 weeks. During this time, the plants were tended, and their response to the individual treatments was evaluated. Evaluation was carried out using a scale from 0 to 100. 100 means no emergence of the plants, or complete destruction of at least the aerial moieties, and 0 means no damage, or normal course of growth. A good herbicidal activity is given at values of at least 80 and a very good herbicidal activity is given at values of at least 90. The plants used in the greenhouse experiments belonged to the following species: [table]

[2] = tested on: Chenopodium album; experiment: Greenhouse post-emergence treatment of Chenopodium album (fat-hen); details: for damage / pest or weed control at 1000 g/ha: application rate 1.0 kg/ha; for damage: scale 0 to 100
Text: as §1

[3] = tested on: Abutilon theophrasti; experiment: Greenhouse post-emergence treatment of Abutilon theophrasti (velvetleaf); details: scale 0 (no damage) to 100 (complete destruction); for pest or weed control at 3000 g/ha: Abutilon theophrasti
Text: as §1

[4] = tested on: Setaria faberi; experiment: Greenhouse post-emergence treatment of Setaria faberi (giant foxtail); details: application rate 3.0 kg/ha; for damage: scale 0 to 100; for pest or weed control at 3000 g/ha: scale 0 to 100, read-out: damage
Text: as §1

[5] = scale 0 to 100, read-out: damage
[6] = application rate 0.927 kg/ha, scale 0 to 100, read-out: damage

Compound | damage [1] [%] | damage [2] [%] | also measured
CCCCSC(=O)c1cc(C2CC2)nc2onc(C)c12 [I.1.81] | 98 | 98 | 
CSC(=O)c1cc(C2CC2)nc2onc(CC(C)(C)C)c12 [I.4.45] | 100 |  | 
Cc1cc(C(=O)O)c2c(CC(C)(C)C)noc2n1 [I.7.41] |  |  | damage ([3]; application rate 3.0 kg/ha): 100%
O=C(O)c1cc(C2CC2)nc2onc(-c3ccc(F)cc3)c12 [I.2.51] | 100 | 100 | 
O=C(O)c1cc(C2CC2)nc2onc(-c3ccccc3F)c12 [I.2.50] | 100 | 100 | 
Cc1noc2nc(C3CC3)cc(C(=O)SCc3ccccc3)c12 [I.1.79] | 98 | 85 | 
CC(C)Oc1noc2nc(C3CC3)cc(C(=O)O)c12 [I.2.57] |  |  | pest or weed control at 1000 g/ha [1, 5]: 100%; pest or weed control at 1000 g/ha [2, 5]: 100%
Cc1noc2nc(-c3ccc(OC(F)F)cc3)cc(C(=O)O)c12 [I.5.13] |  |  | damage [4]: 95%
O=C(O)c1cc(C2CC2)nc2onc(CCC3CCCCC3)c12 [I.2.30] |  |  | pest or weed control at 3000 g/ha ([3]; application rate 3.0 kg/ha): 100%
CCCCOc1noc2nc(C3CC3)cc(C(=O)O)c12 [I.2.56] | 100 | 100 | 
COC(=O)c1cc(C2CC2)nc2onc(C3CCC3)c12 [I.4.4] |  |  | pest or weed control at 3000 g/ha ([3]; application rate 3.0 kg/ha): 100%
CCc1ccc(-c2noc3nc(C4CC4)cc(C(=O)O)c23)cc1 [I.2.61] | 100 | 100 | 
O=C(O)c1cc(C2CC2)nc2onc(-c3cccc(C(F)(F)F)c3)c12 [I.2.21] |  |  | damage ([3]; application rate 3.0 kg/ha): 100%
O=C(O)c1cc(C2CC2(F)F)nc2onc(-c3ccccc3)c12 (stereo not shown) [I.7.56] | 80 | 90 | 
COC(=O)c1cc(C2CC2)nc2onc(C3CC3)c12 [I.8.4] |  |  | pest or weed control at 1000 g/ha [1, 5]: 100%; pest or weed control at 1000 g/ha [2, 5]: 100%
C=CCOC(=O)c1cc(C2CC2)nc2onc(C)c12 [I.1.62] |  |  | damage ([3]; application rate 2.0 kg/ha): 100%
COC(=O)c1cc(C2CC2)nc2onc(-c3cccnc3)c12 [I.4.2] |  |  | pest or weed control at 3000 g/ha [4]: 85%
O=C(O)c1cc(C2(F)CC2)nc2onc(-c3ccc(OC(F)F)cc3)c12 [I.7.65] | 100 | 100 | 
CC(C)Cc1noc2nc(C3(F)CC3)cc(C(=O)O)c12 [I.7.68] | 100 | 100 | 
O=C(O)c1cc(C2CC2)nc2onc(-c3ccc(OC(F)F)cc3)c12 [I.2.45] | 98 | 98 | 

Compound | damage [1] [%] | damage [2] [%] | also measured
COC(=O)c1cc(C2CC2)nc2onc(-c3cccc(OC)c3)c12 [I.4.19] |  |  | damage [4]: 100%
CCCCOCCOCCOC(=O)c1cc(C2CC2)nc2onc(C)c12 [I.1.70] |  |  | damage ([3]; application rate 3.0 kg/ha): 100%
O=C(O)c1cc(C2CC2)nc2onc(-c3ccc(Cl)cc3)c12 [I.2.17] |  |  | damage ([3]; application rate 3.0 kg/ha): 100%
COc1ccc(-c2noc3nc(C4(F)CC4)cc(C(=O)O)c23)cc1 [I.7.61] | 100 | 100 | 
CCc1noc2nc(C3(F)CC3)cc(C(=O)O)c12 [I.7.90] |  |  | pest or weed control at 1000 g/ha [1, 5]: 100%; pest or weed control at 1000 g/ha [2, 5]: 100%
CC(C)(C)c1ccc(-c2noc3nc(C4CC4)cc(C(=O)O)c23)cc1 [I.2.71] | 100 | 100 | 
COc1cccc(-c2noc3nc(C4CC4)cc(C(=O)O)c23)c1 [I.2.22] |  |  | damage ([3]; application rate 3.0 kg/ha): 100%
CSC(=O)c1cc(C2CC2)nc2onc(C3CC3)c12 [I.4.60] |  |  | pest or weed control at 927 g/ha [1, 6]: 100%; pest or weed control at 927 g/ha [2, 6]: 100%
Cc1cc(C(=O)O)c2c(C(C)C)noc2n1 [I.7.10] |  |  | pest or weed control at 3000 g/ha ([3]; application rate 3.0 kg/ha): 100%
CCc1noc2nc(C3CC3)cc(C(=O)O)c12 [I.2.25] |  |  | pest or weed control at 3000 g/ha [4]: 95%
CCCCCc1noc2nc(C3CC3)cc(C(=O)OC)c12 [I.4.25] |  |  | damage ([3]; application rate 3.0 kg/ha): 100%
CC(C)CCc1noc2nc(C3CC3)cc(C(=O)O)c12 [I.2.39] |  |  | damage ([3]; application rate 3.0 kg/ha): 100%
COc1ccc(CCc2noc3nc(C4CC4)cc(C(=O)O)c23)cc1 [I.2.42] |  |  | damage ([3]; application rate 3.0 kg/ha): 100%
CCOCCOC(=O)c1cc(C2CC2)nc2onc(C)c12 [I.1.69] |  |  | damage ([3]; application rate 3.0 kg/ha): 100%
CCCOc1noc2nc(C3CC3)cc(C(=O)O)c12 [I.2.55] | 100 | 100 | 
COc1noc2nc(C3CC3)cc(C(=O)O)c12 [I.2.53] |  |  | pest or weed control at 1000 g/ha [1, 5]: 100%; pest or weed control at 1000 g/ha [2, 5]: 100%
CSC(=O)c1cc(C2CC2)nc2onc(-c3ccc(F)cc3)c12 [I.4.47] | 95 |  | 
Cc1noc2nc(C3CC3)cc(C(=O)OCC(F)F)c12 [I.1.65] | 100 | 100 | 
O=C(O)c1cc(C2(F)CC2)nc2onc(-c3ccccc3)c12 [I.7.62] | 100 | 100 | 
CC(C)c1ccc(-c2noc3nc(C4CC4)cc(C(=O)O)c23)cc1 [I.2.66] | 100 | 100 | 
